Source: publication PMC6017603, “Speeding Up the Identification of Cystic Fibrosis Transmembrane Conductance Regulator-Targeted Drugs: An Approach Based on Bioinformatics Strategies and Surface Plasmon Resonance” (Molecules : A Journal of Synthetic Chemistry and Natural …, 2018)

B1: K8: keratin 8, known CFTR chaperone, purchased recombinant protein (protein, UniProt P05787 1-483, looked up)
Keratin, type II cytoskeletal …: MSIRVTQKSYKVSTSGPRAFSSRSYTSGPGSRISSSSFSRVGSSNFRGGLGGGYGGASGMGGITAVTVNQSLLSPLVLEVDPNIQAVRTQEKEQIKTLNNKFASFIDKVRFLEQQNKMLETKWSLLQQQKTARSNMDNMFESYINNLRRQLETLGQEKLKLEAELGNMQGLVEDFKNKYEDEINKRTEMENEFVLIKKDVDEAYMNKVELESRLEGLTDEINFLRQLYEEEIRELQSQISDTSVVLSMDNSRSLDMDSIIAEVKAQYEDIANRSRAEAESMYQIKYEELQSLAGKHGDDLRRTKTEISEMNRNISRLQAEIEGLKGQRASLEAAIADAEQRGELAIKDANAKLSELEAALQRAKQDMARQLREYQELMNVKLALDIEIATYRKLLEGEESRLESGMQNMSIHTKTTSGYAGGLSSAYGGLTSPGLSYSLGSSFGSGAGSSSFSRTSSSRAVVVKKIETRDGKLVSESSDVLPK

Columns and labels:
ΔF508-NBD1 = molecular target: T1, ΔF508-NBD1 (Mus musculus, UniProt P26361, DEL508-508); test: SPR direct binding to sensor chip-immobilized ΔF508-NBD1; parameters: species or system murine; settings: for Kd / RU of ligand bound to ΔF508-NBD1 at equilibrium (maximal RU): SPR; for Kd: Scatchard's plot analysis of equilibrium binding data, mean ± S.D. of two-three analyses, PBS, 0.05% P20, 5% DMSO, pH 7.4, 25 °C; for RU of ligand bound to ΔF508-NBD1 at equilibrium (maximal RU): mean ± s.d. of two-three separate analyses; for binding to ΔF508-NBD1 (SPR): increasing concentrations injected over immobilized ΔF508-NBD1
T1 construct: Murine WT NBD1 and ΔF508-NBD1 were obtained from CFTR Folding Consortium; purchased CFTR Folding Consortium (obtained, not a commercial vendor)
T1 sequence (P26361 with tags, fused parts or gaps DEL508-508 limits assumed): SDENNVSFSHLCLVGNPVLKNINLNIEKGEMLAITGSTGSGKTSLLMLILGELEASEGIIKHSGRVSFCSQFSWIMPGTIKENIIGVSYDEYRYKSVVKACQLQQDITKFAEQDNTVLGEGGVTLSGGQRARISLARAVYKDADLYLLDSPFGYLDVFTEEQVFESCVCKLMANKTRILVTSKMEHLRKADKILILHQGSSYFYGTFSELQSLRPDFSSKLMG
Description: SPR measurements were performed on a BIAcore X-100 instrument (GE-Healthcare, Milwaukee, WI, USA), using research-grade CM5 carboxyl-methyl-dextran–coated sensor chips (GE-Healthcare). The murine ΔF508-NBD1 was resuspended at 20 µg/mL in 10 mM sodium acetate pH 4.0 and allowed to react with the first flow cell of a CM5 sensor chip pre-activated with 50 μL of 0.2 M EDC and 0.05 M NHS and deactivated by injection of HCl–ethanolamine. This procedure led to the immobilization of 11,000 RU, equal to approximately 400 fmol/mm^2 of protein. Similar results were obtained for the injection of BSA (20 µg/mL) onto the second flow cell of each sensor chip, used as a negative control and for blank subtraction. The appropriate immobilization of ΔF508-NBD1 was checked by injecting increasing concentrations of K8 in PBS, 0.05% surfactant P20 and 5% DMSO, pH 7.4 over the sensor chip for 90 s at 10 μL/min, 25 °C and then washed until dissociation was observed. The inclusion of 5% DMSO in the running buffer (not necessary for protein-protein interaction analysis) and the short association time were chosen to validate ΔF508-NBD1 binding availability in the experimental conditions used for the subsequent analysis of the compounds (see below).
For the evaluation of their capacity to directly bind to ΔF508-NBD1, increasing concentrations of the various compounds of the data-set were resuspended in PBS, 0.05% surfactant P20 and 5% DMSO, pH 7.4, injected over ΔF508-NBD1 or BSA surfaces for 90 s at 10 μL/min, 25 °C and then washed until dissociation was observed. Steady state analysis were performed by fitting the proper form of Scatchard’s equation for the plot of the bound RU at equilibrium versus the compound concentration in solution. When saturation binding was reached, Kd values were calculated. In the case no saturation could be reached due the limited solubility of the compound under test, the software provided a Kd value expected on the bases of the curve’s trend.

[1] = molecular target: T2, K8/ΔF508-NBD1 interaction (Mus musculus, UniProt P26361, DEL508-508); test: SPR injection of compounds onto K8-saturated ΔF508-NBD1 surface; format: binding, murine; settings: compounds at 150 μM; K8 1 µM saturating
T2 construct: Murine WT NBD1 and ΔF508-NBD1 were obtained from CFTR Folding Consortium; purchased ΔF508-NBD1: CFTR Folding Consortium (obtained); K8: Pro-Spec-Tany TechnoGene Ltd
T2 sequence (P26361 with tags, fused parts or gaps DEL508-508 limits assumed): as above
Description: In a further series of experiments, a saturating amount of K8 (1 µM) was injected on the ΔF508-NBD1 surface and allowed to reach an equilibrium binding. Then, the various compounds of the data-set (150 µM) were injected and their capacity to affect the binding of K8 to ΔF508-NBD1 evaluated.

[2] = molecular target: T3, ΔF508-NBD1/K8 interaction (Mus musculus, UniProt P26361, DEL508-508); test: SPR competition assay: ΔF508-NBD1 binding to immobilized K8 in the presence of compounds; parameters: species or system murine; settings: ΔF508-NBD1 600 nM, compound 500 μM; for ΔF508-NBD1 bound to immobilized K8 at equilibrium in the presence of compound: 5% DMSO, ΔF508-NBD1 alone 35 RU
T3 construct: Murine WT NBD1 and ΔF508-NBD1 were obtained from CFTR Folding Consortium; purchased ΔF508-NBD1: CFTR Folding Consortium (obtained); K8: Pro-Spec-Tany TechnoGene Ltd
T3 sequence (P26361 with tags, fused parts or gaps DEL508-508 limits assumed): as above
Description: K8 was used since, as a representative ΔF508-CFTR chaperones, has been repeatedly used for SPR studies and its binding site in ΔF508-CFTR has been mapped. To perform competition assays for the binding to ΔF508-NBD1 between the various compounds and K8, the latter was resuspended at 20 µg/mL in 10 mM sodium acetate pH 4.0 and allowed to react with the first flow cell of a CM5 sensor chip pre-activated with 50 μL of 0.2 M EDC and 0.05 M NHS and deactivated by injection of HCl–ethanolamine. This procedure led to the immobilization of 7800 RU of the protein, (equal to approximately 146 fmol/mm^2). Similar results were obtained for the injection of BSA (10 μg/mL) onto the second flow cell of each sensor chip, that was then used as a negative control and for blank subtraction. ΔF508-NBD1 (at 600 nM) in the absence or in the presence of the various compounds (all at 500 μM) in 0.05% surfactant P20 and 5% DMSO, pH 7.4, was injected over the K8 or BSA surfaces for 90 s at 10 μL/min, 25 °C and then washed until dissociation was observed.

NBD1 = settings: cited from earlier work

Molecule | Kd (ΔF508-NBD1) | RU of ligand bound to ΔF508-NBD1 at equilibrium (maximal RU) (ΔF508-NBD1) | effect of compound injection on K8-saturated ΔF508-NBD1 surface [1] | binding to ΔF508-NBD1 (SPR) (ΔF508-NBD1) | also measured
CSc1cccc(Nc2nc(-c3cccc(Cl)c3)cs2)c1 [Compound 5] | 40.3 ± 2.5 µM | 13.0 ± 1.4 RU | increase of bound RU |  | ΔF508-NBD1 bound to immobilized K8 at equilibrium in the presence of compound [2]: 45 RU
CSc1cccc(Nc2nc(-c3coc4ccccc34)cs2)c1 [Compound 7] |  | 0 to 4 RU |  | do not bind | 
CSc1cccc(Nc2nc(-c3ccc(Br)cc3)cs2)c1 [Compound 4] | 99.3 ± 14.5 µM | 32.0 ± 4.2 RU | inability of compounds 4 and 6 to alter the binding of K8 |  | inhibition at 500 µM [2]: 50%
CSc1cccc(Nc2nc(-c3ccc4[nH]c(=O)oc4c3)cs2)c1 [Compound 6] | 198 ± 4.5 µM | 114.0 ± 5.6 RU | inability of compounds 4 and 6 to alter the binding of K8 |  | effect on the ΔF508-NBD1/K8 interaction [2]: ineffective
COc1ccc(Cl)cc1Nc1nc(-c2sc(NC(=O)c3ccccc3)nc2C)cs1 [C4a, reference compound] |  |  |  | do not bind | binding to NBD1 (NBD1): does not bind to NBD1
CC(C)(C)c1cc(C(C)(C)C)c(NC(=O)c2c[nH]c3ccccc3c2=O)cc1O [VX770, Ivacaftor, reference compound] |  |  |  | do not bind | binding to NBD1 (NBD1): does not bind to NBD1
Cc1ccc(NC(=O)C2(c3ccc4c(c3)OC(F)(F)O4)CC2)nc1-c1cccc(C(=O)O)c1 [VX809, Lumacaftor, reference compound] | 24.2 ± 6.2 µM | 163.7 ± 23.7 RU | increase of bound RU |  | ΔF508-NBD1 bound to immobilized K8 at equilibrium in the presence of compound [2]: 68 RU
B1 |  |  |  |  | binding of K8 to immobilized ΔF508-NBD1 (ΔF508-NBD1; K8 600 nM, BSA surface as negative control): specifically binds
